Laboratory results: paper PMC3157396, “Molecular Basis for the Recognition of Adenomatous Polyposis Coli by the Discs Large 1 Protein” (PLoS ONE, 2011)
Entries after “also recorded” stand apart in the source; their conditions may differ.

What was measured:
[1] = biological target: T1, PDZ2 domain of DLG1 (residues 315–410) (Homo sapiens, UniProt Q12959); assay: GST pull-down assay, PDZ2; format: binding; details: for binding in GST pull-down (in words): PDZ2 (WT), GST-APC peptide immobilized, 4°C, 25 mM Tris-HCl pH 8.0, 150 mM NaCl, 2 mM DTT, SDS-PAGE, Coomassie Blue
T1 construct: PDZ2 (residues 315–410); His tag (N); made in house; host or cells: E. coli BL21 (DE3)
From the text: (§1) The cDNAs encoding PDZ1 (residues 220–310), PDZ2 (residues 315–410), PDZ3 (462–552), and PDZ1-PDZ2 (residues 220–410) domains of human DLG1 were cloned into pET28a (Novagen)-derived vectors and over-expressed as N-terminal His-tagged proteins. The C-terminal 11 residues of human APC (residues 2833–2843, APC-C11, with sequence […]), the C-terminal 4 residues of human APC (residues 2840–2843, APC-C4, sequence VTSV), and residues 2833–2842 of APC (APC-C10, sequence […]) were cloned into the pGEX4T1 (GE Healthcare) vector to be expressed as N-terminal GST-tagged recombinant proteins.
(§2) All proteins except PDZ1-PDZ2 were over-expressed in E. coli strain BL21 (DE3), and PDZ1-PDZ2 was over-expressed in E. coli strain BL21 (RIL). Cells were cultured at 37°C in LB medium and incubated for 20 hours at 18°C with 0.5 mM isopropyl β-D-1-thiogalactopyranoside (IPTG) on reaching OD600 = 0.6. Cells were harvested by centrifugation and resuspended in the binding buffer (Ni^2+-NTA column binding buffer: 25 mM Tris-HCl, pH 8.0, 300 mM NaCl, and 20 mM imidazole; GST column binding buffer: 25 mM Tris-HCl, pH 8.0, 150 mM NaCl, and 2 mM DTT). The cells were lysed by sonication, followed by centrifugation. Supernatants of the cells lysates were purified by Ni^2+-NTA affinity chromatography (Qiagen) or GST affinity chromatography (GE Healthcare). PDZ1, PDZ2, PDZ3, and PDZ1-PDZ2 proteins were then purified by Superdex 200 gel filtration chromatography equilibrated with a buffer containing 20 mM Tris-HCl, pH 8.0, 100 mM NaCl, and 2 mM DTT.
(§3) GST pull-down assays between wild-type (WT) or mutant APC peptides and WT or mutant PDZ domain proteins were performed according to standard procedures. […] The bound proteins were eluted with the GST column elution buffer (50 mM Tris-HCl, pH 8.0, 150 mM NaCl, and 7 mM glutathione), and then analyzed by SDS-PAGE and Coomassie Blue staining.

[2] = biological target: T2, PDZ1 domain of DLG1 (residues 220–310) (Homo sapiens, UniProt Q12959); assay: GST pull-down assay, PDZ1; format: binding; details: GST-APC peptide immobilized, 4°C, 25 mM Tris-HCl pH 8.0, 150 mM NaCl, 2 mM DTT, SDS-PAGE, Coomassie Blue
T2 construct: The cDNAs encoding PDZ1 (residues 220–310); His tag (N); made in house; host or cells: E. coli BL21 (DE3)
From the text: as §1, §2, §3

PDZ2 Δ339–346 (DLG1) [3] = biological target: T3, PDZ2 Δ339–346 (DLG1) (Homo sapiens, UniProt Q12959, DEL339-346); assay: GST pull-down assay, PDZ2 Δ339–346; format: binding; details: PDZ2 Δ339–346 vs WT PDZ2; GST-APC-C11 immobilized, 4°C; 25 mM Tris-HCl pH 8.0, 150 mM NaCl, 2 mM DTT
T3 construct: PDZ2 (residues 315–410); His tag (N); made in house; host or cells: E. coli BL21 (DE3)
T3 sequence (Q12959 with tags, fused parts or gaps DEL339-346): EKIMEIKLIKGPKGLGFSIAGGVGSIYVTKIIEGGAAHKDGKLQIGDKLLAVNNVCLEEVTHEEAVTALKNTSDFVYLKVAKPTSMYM
From the text: (§4) The 3D structures of the three PDZ domains of DLG1 have been determined in the free forms [13]–[15]. They share very similar structures, and the ligand binding pockets are also conserved. […] The residues in the β2/β3 loops of PDZ domains in other proteins have also been implicated in determining their target ligand binding affinities, [18]. In order to know whether the β2/β3 loop also plays an important role in the interaction between APC and DLG1, we created a similar mutant of PDZ2 deleting residues 339–346.
as §1
GST pull-down assays between wild-type (WT) or mutant APC peptides and WT or mutant PDZ domain proteins were performed according to standard procedures. […]

[4] = biological target: T1, PDZ2 domain of DLG1 (residues 315–410); assay: ITC, PDZ2 titrated into GST-tagged APC peptides; format: binding; details: 25°C, 50 mM HEPES pH 7.5, 100 mM NaCl
From the text: as §1, §2
(§5) Isothermal titration calorimetry (ITC) experiments were performed using an ITC200 system (GE Healthcare) at 25°C. The buffer contained 50 mM HEPES, pH 7.5, and 100 mM NaCl. Proteins were centrifuged and degassed before the experiment. Typically, a WT or mutant DLG1 PDZ domain protein (400 µM) was injected 20 times in 2 µl aliquots into a 300 µl sample cell containing GST-tagged APC-C11 or APC-C4 protein (40 µM). Data were fit with a nonlinear least-square routine using a single site binding model with Origin for ITC version 7.0 (MicroCal), varying the stoichiometry (n), the enthalpy of the reaction (ΔH), and the association constant (K a).

[5] = tested on: PDZ1-PDZ2 of DLG1 (residues 220–410); assay: GST pull-down assay, PDZ1-PDZ2; format: binding, human; details: GST-APC peptide immobilized, 4°C, 25 mM Tris-HCl pH 8.0, 150 mM NaCl, 2 mM DTT, SDS-PAGE, Coomassie Blue
From the text: as §1
All proteins except PDZ1-PDZ2 were over-expressed in E. coli strain BL21 (DE3), and PDZ1-PDZ2 was over-expressed in E. coli strain BL21 (RIL). Cells were cultured at 37°C in LB medium and incubated for 20 hours at 18°C with 0.5 mM isopropyl β-D-1-thiogalactopyranoside (IPTG) on reaching OD600 = 0.6. […]
as §3

PDZ3 domain of DLG1 = biological target: T4, PDZ3 domain of DLG1 (Homo sapiens, UniProt Q12959); assay: ITC, PDZ3 titrated into GST-APC-C11; format: binding; details: 25°C, 50 mM HEPES pH 7.5, 100 mM NaCl
T4 construct: PDZ3 (462–552); His tag (N); made in house; host or cells: E. coli BL21 (DE3)
From the text: as §1
as §2, with “PDZ1, PDZ2, PDZ3, and PDZ1-PDZ2 proteins were then purified by Superdex 200 gel filtration chromatography equilibrated with a buffer containing 20 mM Tris-HCl, pH 8.0, 100 mM NaCl, and 2 mM DTT.” left out

PDZ2 Δ339–346 (DLG1) [6] = biological target: T3, PDZ2 Δ339–346 (DLG1); assay: ITC, PDZ2 Δ339–346 titrated into GST-APC-C11; format: binding; details: 25°C, 50 mM HEPES pH 7.5, 100 mM NaCl
From the text: as §4, §1
Isothermal titration calorimetry (ITC) experiments were performed using an ITC200 system (GE Healthcare) at 25°C. The buffer contained 50 mM HEPES, pH 7.5, and 100 mM NaCl. Proteins were centrifuged and degassed before the experiment. […]

[7] = biological target: T2, PDZ1 domain of DLG1 (residues 220–310); assay: ITC, PDZ1 titrated into GST-tagged APC peptides; format: binding; details: 25°C, 50 mM HEPES pH 7.5, 100 mM NaCl
From the text: as §1, §2, §5

PDZ2 Q340P (DLG1) [8] = biological target: T5, PDZ2 Q340P (DLG1) (Homo sapiens, UniProt Q12959, Q340P); assay: GST pull-down assay, PDZ2 Q340P; format: binding; details: PDZ2 Q340P vs WT PDZ2; GST-APC-C11 immobilized, 4°C; 25 mM Tris-HCl pH 8.0, 150 mM NaCl, 2 mM DTT
T5 construct: PDZ2 (residues 315–410); His tag (N); made in house; host or cells: E. coli BL21 (DE3)
T5 sequence (Q12959 315-410 Q340P): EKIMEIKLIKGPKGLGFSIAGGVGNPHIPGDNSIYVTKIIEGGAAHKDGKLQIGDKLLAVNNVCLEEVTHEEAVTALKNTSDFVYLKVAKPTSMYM
From the text: as §1, §3

PDZ2 Q340P (DLG1) [9] = biological target: T5, PDZ2 Q340P (DLG1); assay: ITC, PDZ2 Q340P titrated into GST-APC-C11; format: binding; details: 25°C, 50 mM HEPES pH 7.5, 100 mM NaCl
From the text: as §1, §5

[10] = tested on: PDZ1 and PDZ2 domains of PSD-95; details: cited from earlier work
From the text: The 3D structures of the three PDZ domains of DLG1 have been determined in the free forms [13]–[15]. They share very similar structures, and the ligand binding pockets are also conserved. […] The residues in the β2/β3 loop ...

[11] = tested on: P245Q mutation in PDZ1 of DLG1; details: cited from earlier work
From the text: This residue difference might account for the higher affinity between PDZ2 and APC.

T1 sequence (Q12959 315-410): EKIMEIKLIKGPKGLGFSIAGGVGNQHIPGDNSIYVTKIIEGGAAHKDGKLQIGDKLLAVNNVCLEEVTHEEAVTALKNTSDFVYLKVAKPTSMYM
T2 sequence (Q12959 220-310): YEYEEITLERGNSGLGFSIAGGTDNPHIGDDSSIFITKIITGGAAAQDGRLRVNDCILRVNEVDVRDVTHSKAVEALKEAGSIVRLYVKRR
T4 sequence (Q12959 462-552): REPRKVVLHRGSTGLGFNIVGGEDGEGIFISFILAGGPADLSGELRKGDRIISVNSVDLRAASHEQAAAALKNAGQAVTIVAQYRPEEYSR

## RHSGSYLVTS [APC-C10]
[1]
  binding in GST pull-down (in words): no interaction could be observed
[2]
  binding in GST pull-down (in words): no interaction could be observed

## RHSGSYLVTSV [APC-C11]
[1]
  binding in GST pull-down (in words): stronger than that between PDZ1 and APC-C11
[1]; listed as GST-APC-C11
  binding in GST pull-down (in words): bound most strongly
[1]; PDZ2, buffer similar to the condition in which PDZ2/APC-C11 crystallized, data not shown
  binding in GST pull-down in crystallization-like buffer (in words): weaker than that between PDZ1 and APC-C11
PDZ2 Δ339–346 (DLG1) [3]
  binding in GST pull-down (in words): significantly decreases the interaction; also recorded: dramatically decreased the interaction
[4]; 400 µM PDZ2 into 40 µM GST-tagged APC peptide, single site binding model
  DLG/APC ratio: 0.916±0.018
[4]; PDZ2 into GST-tagged APC peptide
  TΔS: 1.07 kcal/mol
[4]; PDZ2 into GST-tagged APC peptide, negative = exothermic
  ΔH: -7.09 ± 0.19 kcal/mol
[5]
  binding in GST pull-down (in words): bound most strongly
PDZ3 domain of DLG1
  interaction / heat of reaction by ITC (in words): no detectable interaction was observed
PDZ2 Δ339–346 (DLG1) [6]
  interaction / heat of reaction by ITC (in words): no detectable heat of reaction
PDZ2 Δ339–346 (DLG1) [6]; listed as GST-APC-C11
  interaction / heat of reaction by ITC (in words): no detectable interaction was observed
[7]; 400 µM PDZ1 into 40 µM GST-tagged APC peptide, single site binding model
  DLG/APC ratio: 0.918±0.127
[7]; PDZ1 into GST-tagged APC peptide
  TΔS: 2.44 kcal/mol
[7]; PDZ1 into GST-tagged APC peptide, negative = exothermic
  ΔH: -4.02 ± 0.82 kcal/mol
[2]
  binding in GST pull-down (in words): somewhat weaker, but detectable binding
PDZ2 Q340P (DLG1) [8]
  binding in GST pull-down (in words): greatly diminished the association; also recorded: substantially weaker interaction
PDZ2 Q340P (DLG1) [9]; 400 µM PDZ2 Q340P into 40 µM GST-APC-C11, single site binding model
  DLG/APC ratio: 1.04±0.03
PDZ2 Q340P (DLG1) [9]; PDZ2 Q340P into GST-APC-C11
  TΔS: 0.0793 kcal/mol
PDZ2 Q340P (DLG1) [9]; PDZ2 Q340P into GST-APC-C11, negative = exothermic
  ΔH: -6.76 ± 0.27 kcal/mol

## VTSV [APC-C4]
[1]
  binding in GST pull-down (in words): significantly weaker compared to GST-APC-C11
[4]; PDZ2, listed as GST-APC-C4
  interaction / heat of reaction by ITC (in words): no detectable heat of reaction; also recorded: no detectable interaction was observed
[5]
  binding in GST pull-down (in words): significantly weaker compared to GST-APC-C11
[7]; PDZ1, listed as GST-APC-C4
  interaction / heat of reaction by ITC (in words): no detectable heat of reaction; also recorded: no detectable interaction was observed
[2]
  binding in GST pull-down (in words): significantly weaker compared to GST-APC-C11

## NR2B: NR2B subunit of NMDA receptors
[10]
  change of binding affinity on deletion of six residues from the β2/β3 loops (in words): decreases the binding affinity
[11]
  fold increase in binding affinity for NR2B: 2 fold
